{
  "source": "patent US9073985B2",
  "about": "“Methods and products for treating proliferative diseases” (The Regents of the University of Colorado, a body corporate, priority 2008, dated 2015)",
  "system": "melanoma cells",
  "test": "In vitro treatment of tumor cells in culture, flow cytometry (cell cycle analysis, cell death)",
  "format": "cell-based",
  "conditions": "melanoma cells treated in vitro",
  "protocol": "Tumor cells (B16.F1, NIT-1, or MCF7) were thawed from liquid nitrogen. The tumor cells were transferred into a 15 milliliter (ml) conical tube using a sterile bulb pipette. Using a balance, the tubes were balanced with cells and spun in the centrifuge. The liquid was removed using the vacuum, leaving the pellet of cells. The cells were mixed using two mls of the RPMI. In a 24 well plate, 1 ml of RPMI was placed in each well. One ml of cells was placed into the first well and the second ml was missed into the second well, then one ml was transferred from the second well into the third. The process was repeated until one ml will remain for the last well (serial dilutions). After two to three days the cells were confluent enough to transfer from a well into a flask. After around 24 hours the treatments were added to the appropriate flasks (control, chloroquine, Avastin, both). After 48 hrs. the cells were stained using lysotracker and propidium idodide. The plate was run in the flow cytometer to check the growth arrest and the amount of lysosomic activity as well as the amount of cell death.",
  "data": [
    {"substance": "avastin: humanized monoclonal antibody against VEGF-A, trade name Avastin, Genentech/Roche", "values": [
      {"measurement": "growth arrest by cell cycle analysis", "result": "growth arresting the melanoma cells in G0-G1 phase"}
    ]}
  ]
}
